Assay results: US20240115654A1, “INTRAVENOUS ADMINISTRATION OF ENGINEERED ANTIMICROBIAL AMPHIPHILIC PEPTIDES” (priority 2021, published 2024)
Where “and” joins values, the source holds several entries; their conditions need not be identical. Identical values can stand only once. Peptide text beside a SMILES is read from it.

Source text: All subjects who met eligibility criteria were confined to the clinical research unit from […] through Day 3. At admission, physical examination, vital signs, 12 lead ECG and weight were obtained, medical and medication history were updated if necessary, safety blood tests (hematology and chemistry), urinalysis, urine drug screen and an alcohol breath test were repeated and a urine pregnancy test was done for women of childbearing potential.
At each dose level, there were 2 sentinel subjects, (1 active, 1 placebo), who were dosed at least 48 hours in advance of the other subjects in their respective group. Following review of safety data, including physical examination, vital signs, and review of adverse events from the first 2 subjects, enrolment in the cohort continued.
A 12-lead ECG was performed on Day 1, within 60 minutes of infusion start (in triplicate), mid-way through the infusion, at the completion of the infusion, 30 minutes after completion of the infusion and at various timepoints following the end of the infusion.
Vital signs were recorded within 60 minutes pre-dose, at the mid-point of the infusion and post dose vitals were assessed at completion of the infusion, 0.5, 1, 2, 3, 4, 6, 9, 12, 24 and 48 hours post dose, after at least 3 minutes of rest in supine position.
Subjects returned to the study center 7 days after dosing, for the termination visit. A full physical examination, vital signs and weight were obtained, concomitant medications were updated if necessary, safety blood specimens (haematology and chemistry, PT and aPTT) and urine were collected for urinalysis and urine drug screening. A serum pregnancy test was done for women of childbearing potential and a 12-lead ECG was performed.
In this study dose limiting toxicity (DLT) was defined as any drug related ≥Grade 3 AEs occurring despite optimal therapeutic interventions (which included but were not limited to allergic/hypersensitivity reactions, dermatological reactions/infusion site reactions, haematological toxicities such as neutropenia, thrombocytopenia and anaemia and clinical chemistry abnormalities) experienced up to Day 7 (Termination Visit).
(§1) All subjects who received any amount of study drug were included in the safety analysis (Safety population).
The study was a double blinded, randomized, placebo-controlled study. The placebo administered was 0.9% sodium chloride.
On Day 1 (day of dosing), subjects were randomly assigned either peptide IV or Placebo IV. At each dose level, there were 2 sentinel subjects, (1 active, 1 placebo), who were dosed at least 48 hours in advance of the other subjects in their respective group. Following review of safety data, including physical examination, vital signs, and review of adverse events from the first 2 subjects, enrolment in the cohort continued. All subjects who met eligibility criteria were confined to the clinical research unit from Day −2 through Day 3. At admission, physical examination, vital signs, 12 lead ECG and weight were obtained, medical and medication history were updated if necessary, safety blood tests (hematology and chemistry), urinalysis, urine drug screen and an alcohol breath test were repeated and a urine pregnancy test was done for women of childbearing potential.
as §1

## CC(C)[C@H](NC(=O)[C@H](Cc1c[nH]c2ccccc12)NC(=O)[C@H](CCCNC(=N)N)NC(=O)[C@H](CCCNC(=N)N)NC(=O)[C@@H](NC(=O)[C@@H](NC(=O)[C@H](CCCNC(=N)N)NC(=O)[C@@H](NC(=O)[C@@H](NC(=O)[C@H](CCCNC(=N)N)NC(=O)[C@H](CCCNC(=N)N)NC(=O)[C@H](Cc1c[nH]c2ccccc12)NC(=O)[C@@H](NC(=O)[C@H](CCCNC(=N)N)NC(=O)[C@H](CCCNC(=N)N)NC(=O)[C@@H](NC(=O)[C@H](CCCNC(=N)N)NC(=O)[C@H](CCCNC(=N)N)NC(=O)[C@@H](NC(=O)[C@H](Cc1c[nH]c2ccccc12)NC(=O)[C@H](CCCNC(=N)N)NC(=O)[C@@H](N)CCCNC(=N)N)C(C)C)C(C)C)C(C)C)C(C)C)C(C)C)C(C)C)C(C)C)C(=O)N[C@@H](CCCNC(=N)N)C(=O)N[C@@H](CCCNC(=N)N)C(N)=O [SEQ ID NO: 1] (H-RRWVRRVRRVWRRVVRVVRRWVRR-NH2)
Pooled SEQ ID NO: 1 (N = 29)
  Related TEAE Co[?], n participants: 0
  Related TEAE F[?], n participants: 0
  Related TEAE Nervous system disorders, n participants: 0
  Related TEAE O[?] (r38, respiratory SOC), n participants: 0
  Related TEAE Pain in extremity, n participants: 0
  Related TEAE Respiratory, thoracic and m[?] disorders, n participants: 0
  Related TEAE T[?], n participants: 0
  Related TEAE [?] headache, n participants: 0
  Related TEAE, occurrences (M): 12
  TEAE A[?] (r19, skin SOC), n participants: 0
  TEAE Blood and lymphatic system disorders, n participants: 0
  TEAE Constipation, n participants: 0
  TEAE D[?] contact, M occurrences: 3
  TEAE D[?] contact, n participants: 2
  TEAE Gastrointestinal disorders, M occurrences: 3
  TEAE Gastrointestinal disorders, n participants: 2
  TEAE General disorders and administration site conditions, M occurrences: 8
  TEAE General disorders and administration site conditions, n participants: 7
  TEAE Injury, [?] and procedural complications, % participants: 48.3%
  TEAE Injury, [?] and procedural complications, n participants: 14
  TEAE O[?] (r37, vascular SOC), M occurrences: 2
  TEAE O[?] (r37, vascular SOC), n participants: 1
  TEAE O[?] pain, n participants: 0
  TEAE Related (to study drug), M occurrences: 12
  TEAE Related (to study drug), n participants: 2
  TEAE Respiratory, thoracic and [?] disorders, n participants: 0
  TEAE Severity Grade 1, participants %: 82.8%
  TEAE Severity Grade 1, participants n: 24
  TEAE Skin reaction, M occurrences: 3
  TEAE Skin reaction, n participants: 2
  TEAE V[?] (r24, general SOC), M occurrences: 4
  TEAE V[?] (r24, general SOC), n participants: 3
  TEAE Vascular disorders, M occurrences: 5
  TEAE Vascular disorders, n participants: 3
  TEAE [?] (r26, general SOC), n participants: 0
  TEAE [?] (r39, vascular SOC), n participants: 0
  TEAE [?] (r44, nervous SOC), n participants: 0
  TEAE [?] (r52, blood SOC), n participants: 0
  TEAE, occurrences (M): 52
Pooled SEQ ID NO: 1 (N = 35)
  Participants With At Least 1 TEAE, n (%): 31 (88.6%)
  Participants With At Least 1 TEAE, occurrences m: 71 and 72
  Participants With At Least 1 Treatment-Related TEAE, n (%): 13 (37.1%)
  Participants With At Least 1 Treatment-Related TEAE, occurrences m: 23
  TEAE by system organ class: Blood and Lymphatic System Disorders, participants n (%): 0
  TEAE by system organ class: Gastrointestinal Disorders, occurrences m: 4
  TEAE by system organ class: Gastrointestinal Disorders, participants n (%): 3 (8.6%)
  TEAE by system organ class: General Disorders and Administration Site Conditions, occurrences m: 17
  TEAE by system organ class: General Disorders and Administration Site Conditions, participants n (%): 13 (37.1%)
  TEAE by system organ class: Infections and Infestations, occurrences m: 1
  TEAE by system organ class: Infections and Infestations, participants n (%): 1 (2.9%)
  TEAE by system organ class: Injury, Poisoning, and Procedural Complications, occurrences m: 24
  TEAE by system organ class: Injury, Poisoning, and Procedural Complications, participants n (%): 18
  TEAE by system organ class: Musculoskeletal and Connective Tissue Disorders, occurrences m: 6
  TEAE by system organ class: Musculoskeletal and Connective Tissue Disorders, participants n (%): 6 (17.1%)
  TEAE by system organ class: Nervous System Disorders, occurrences m: 6
  TEAE by system organ class: Nervous System Disorders, participants n (%): 6 (17.1%)
  TEAE by system organ class: Respiratory, Thoracic, and Mediastinal disorders, participants n (%): 0
  TEAE by system organ class: Skin and Subcutaneous Tissue Disorders, occurrences m: 9
  TEAE by system organ class: Skin and Subcutaneous Tissue Disorders, participants n (%): 7 (20.0%)
  TEAE by system organ class: Vascular Disorders, occurrences m: 5
  TEAE by system organ class: Vascular Disorders, participants n (%): 3 (8.6%)
  TEAE severity Grade 1, occurrences m: 64
  TEAE severity Grade 1, participants n (%): 30 (85.7%)
  TEAE severity Grade 2, occurrences m: 8
  TEAE severity Grade 2, participants n (%): 5 (14.3%)
  TEAE severity Grade 3, participants n (%): 0
  TEAE severity Grade 4, participants n (%): 0
